Results published in ChEMBL document CHEMBL1151677, “Bicinchoninic acid protein assay in the determination of adriamycin cytotoxicity modulated by the MDR glycoprotein” (1996).
≈ marks a conversion by molar mass, not a printed value. Calls of active or inactive are those of the source. The calls are words filed in the database; no cut-off is given here.

Experiments:
MCF/ADR [1] = test: Reversal of P-gp-mediated multidrug resistance in human MCF/ADR cells assessed as ratio of adriamycin ED50 without drug to adriamycin ED50 with drug at 0.28 uM after 6 days by BCA assay; assay type: cell-based
MCF/ADR [2] = test: Reversal of P-gp-mediated multidrug resistance in human MCF/ADR cells assessed as ratio of adriamycin ED50 without drug to adriamycin ED50 with drug at 0.53 uM after 6 days by BCA assay; assay type: cell-based
MCF/ADR [3] = test: Reversal of P-gp-mediated multidrug resistance in human MCF/ADR cells assessed as ratio of adriamycin ED50 without drug to adriamycin ED50 with drug at 1.07 uM after 6 days by BCA assay; assay type: cell-based
[4] = Cytotoxicity against human MCF7/ADR cells assessed as ratio of drug concentration to 2 x drug ED50 at 0.28 uM after 6 days by BCA assay; assay type: functional, NCI/ADR-RES
[5] = Cytotoxicity against human MCF7/ADR cells assessed as ratio of drug concentration to 2 x drug ED50 at 0.53 uM after 6 days by BCA assay; assay type: functional, NCI/ADR-RES
[6] = Cytotoxicity against human MCF7/ADR cells assessed as ratio of drug concentration to 2 x drug ED50 at 1.07 uM after 6 days by BCA assay; assay type: functional, NCI/ADR-RES
MCF = test: Reversal of P-gp-mediated multidrug resistance in human MCF cells assessed as enhancement in cytotoxicity of adriamycin; assay type: cell-based
MCF/ADR [7] = test: Reversal of P-gp-mediated multidrug resistance in human MCF/ADR cells assessed as enhancement in cytotoxicity of adriamycin; assay type: cell-based
[8] = Cytotoxicity against human MCF7/ADR cells after 6 days by coulter counted assay; assay type: functional; settings: NCI/ADR-RES, 144 h, read-out: ED50 (the source's name)
[9] = Cytotoxicity against human MCF7/ADR cells after 6 days by BCA assay; assay type: functional; settings: NCI/ADR-RES, 144 h, read-out: ED50 (the source's name)
MCF7 [10] = test: Cytotoxicity against human MCF7 cells after 6 days by coulter counted assay; assay type: functional; settings: MCF7, 144 h, read-out: ED50 (the source's name)
MCF7 [11] = test: Cytotoxicity against human MCF7 cells after 6 days by BCA assay; assay type: functional; settings: MCF7, 144 h, read-out: ED50 (the source's name)
[12] = Cytotoxicity against human MCF7/ADR cells assessed as ratio of drug concentration to 2 x drug ED50 at 0.82 uM after 6 days by BCA assay; assay type: functional, NCI/ADR-RES
[13] = Cytotoxicity against human MCF7/ADR cells assessed as ratio of drug concentration to 2 x drug ED50 at 1.64 uM after 6 days by BCA assay; assay type: functional, NCI/ADR-RES
[14] = Cytotoxicity against human MCF7/ADR cells assessed as ratio of drug concentration to 2 x drug ED50 at 3.29 uM after 6 days by BCA assay; assay type: functional, NCI/ADR-RES
[15] = Displacement of N-(p-azido-[3-125I]salicyl)-N'-beta-aminoethylvindesine from P-glycoprotein at 12.4 uM
[16] = Cytotoxicity against human MCF7/ADR cells assessed as ratio of drug concentration to 2 x drug ED50 at 0.15 uM after 6 days by BCA assay; assay type: functional, NCI/ADR-RES
[17] = Cytotoxicity against human MCF7/ADR cells assessed as ratio of drug concentration to 2 x drug ED50 at 0.30 uM after 6 days by BCA assay; assay type: functional, NCI/ADR-RES
[18] = Cytotoxicity against human MCF7/ADR cells assessed as ratio of drug concentration to 2 x drug ED50 at 0.62 uM after 6 days by BCA assay; assay type: functional, NCI/ADR-RES
[19] = Cytotoxicity against human MCF7/ADR cells assessed as ratio of drug concentration to 2 x drug ED50 at 1.23 uM after 6 days by BCA assay; assay type: functional, NCI/ADR-RES
[20] = Cytotoxicity against human MCF7/ADR cells assessed as ratio of drug concentration to 2 x drug ED50 at 2.46 uM after 6 days by BCA assay; assay type: functional, NCI/ADR-RES

CC[C@H]1CN2CC[C@H]1C[C@H]2[C@@H](Oc1cc(C)c2ccccc2n1)c1ccnc2ccc(OC)cc12
Ratio ED50 (MCF/ADR [1]): 3
Ratio ED50 (MCF/ADR [2]): 6
Ratio ED50 (MCF/ADR [3]): 18
Ratio [4]: 0.03
Ratio [5]: 0.06
Ratio [6]: 0.11

C=C[C@H]1C[N+]2(Cc3ccccc3)CC[C@H]1C[C@H]2[C@H](O)c1ccnc2ccc(OC)cc12
Activity (MCF): inactive
Activity (MCF/ADR [7]): inactive

COc1ccc(CCN(C)CCCC(C#N)(c2ccc(OC)c(OC)c2)C(C)C)cc1OC (stereo not drawn)
Activity (MCF): inactive

COc1cccc2c1C(=O)c1c(O)c3c(c(O)c1C2=O)C[C@@](O)(C(=O)CO)C[C@@H]3O[C@H]1C[C@H](N)[C@H](O)[C@H](C)O1 [DOXORUBICIN]
EC50 [8]: 2.7 µg/mL (≈ 4.97 µM)
EC50 [9]: 0.47 µg/mL (≈ 0.865 µM)
Activity (MCF): Active
EC50 (MCF7 [10]): 0.0021 µg/mL (≈ 0.00386 µM)
EC50 (MCF7 [11]): 0.0018 µg/mL (≈ 0.00331 µM)

COC(=O)[C@H]1[C@H]2C[C@H]3c4[nH]c5cc(OC)ccc5c4CCN3C[C@H]2C[C@@H](OC(=O)c2cc(OC)c(OC)c(OC)c2)[C@@H]1OC [ISORESERPINE]
Ratio [12]: 0.04
Ratio [13]: 0.09
Ratio [14]: 0.17

COC(=O)[C@H]1[C@H]2C[C@@H]3c4[nH]c5cc(OC)ccc5c4CCN3C[C@H]2C[C@@H](OC(=O)c2cc(OC)c(OC)c(OC)c2)[C@@H]1OC [RESERPINE]
Activity [15]: 79.2%
Ratio [16]: 0.05
Ratio [17]: 0.009
Ratio [18]: 0.02
Ratio [19]: 0.04
Ratio [20]: 0.08
